Experiments:
[1] = test system: Experimental Autoimmune Encephalomyelitis (EAE) model; experiment: Clinical score in MOG-induced EAE multiple sclerosis model in mice; assay type: in vivo
Cathepsin B = Cathepsin B activity in Lewis lung carcinoma tumors of treated mice (fluorometric kit); assay type: in vivo; settings: 12 days treatment; vs untreated (saline) group
Experimental: 8 tumors were analyzed per group. For the assay, 20 mg from each extracted tumor were weighed and lysed. Measurements were done using Cathepsin B Activity Assay Kit (Fluorometric) (ab65300) by Abcam (Cambridge, UK). The assays were performed on tumors from the two groups. The lysed samples were treated per Kit instructions, i.e., incubated with Cathepsin B substrate for 1 hour at 37° C. to identify the activity of the lysosomal protein.
(§1) The study was performed with C57BL/6 mice at the age of 6-8 weeks. Eight mice were allocated into each study group. Light anesthesia was administered by isoflurane inhalation. LLC cells in a concentration of 2.5×10^5 cells in 100 μl PBS were intradermally injected (subcutaneously) into the right flank of each mice. […] Cisplatin was given according to manufacturer instructions.
(§2) Ten days following tumor inoculation, when the tumor reached a volume of about >60 mm^3, mice were randomly allocated into the study groups. Various treatments were administered to each group starting Day 10 onwards. The treatment duration lasted for 12 days.
(§3) Both Cathepsin B and S activities were measured using samples from the same groups according to kit instructions. […] Cathepsin B Activity Assay Kit (Fluorometric) (ab65300) and Cathepsin S Activity Assay Kit (Fluorometric) (ab65303) by Abcam (Cambridge, UK) were used.

Cathepsin S = Cathepsin S activity in Lewis lung carcinoma tumors of treated mice (fluorometric kit); assay type: in vivo; settings: 12 days treatment; vs untreated (saline) group
Experimental: as §1, §2, §3

[2] = test system: Lewis Lung Carcinoma (LLC); experiment: Tumor growth in subcutaneous LLC model, ACC with different stabilizers given IP or IV; assay type: in vivo, mice; settings: group 2F, per manufacturer

| Compound | day on which paralysis signs started ([1]; C57BL mice, n=10 per group) [days] | score of the paralysis signs at plateau ([1]; after days 15 and 16 of treatments) | score of the paralysis signs at the end of the study ([1]; study duration 55 days) | paralysis progression at the initial phase ([1]; until day 15, compared to mice given saline or ACC) | reduction in Cathepsin B activity in tumors (Cathepsin B) [%] | increase in Cathepsin S activity in tumors (Cathepsin S) [%] | Mean tumor volume on Day 25 [2] [mm^3] |
| --- | --- | --- | --- | --- | --- | --- | --- |
| Glatiramer acetate [Copaxone] | 11 | the same paralysis score | higher score | slower paralysis progression |  |  |  |
| N.N.[Cl][Pt][Cl] [Cisplatin] |  |  |  |  | 43 | 30 | 1342 |

— patent US20230124095A1 (AMORPHICAL LTD., priority 2020, published 2023)
